The compounds below were run on HIV-1 (assay: NCI in vitro anti-HIV drug screen: XTT-formazan assay, protection of T4 lymphocytes (CEM) from HIV-1 cytopathic effects). Conditions: Human immunodeficiency virus 1, Lymphocyte, dose 6.32 × 10^-6 Molar; read-out: Percent of Control, Infected.
Format: cell-based, human immunodeficiency virus (HIV-1)
Method: Compounds of the present invention were evaluated for anti-HIV efficacy by the National Cancer Institute's (NCI) In Vitro Anti AIDS Drug Discovery Program.
(§1) The NCI procedure is fully described, for example, in a bulletin provided by the National Institutes of Health, National Cancer Institute, Bethesda, Md. 20892, all of which is incorporated herein by reference. As related in the NCI bulletin, the procedure is based on O. W. Weislow et al., "New soluble-formazan assay for HIV-1 cytopathic effects: application to high flux screening of synthetic and natural products for AIDS-antiviral activity", J. Natl. Cancer Inst. 81:577-586 (1989), and is used to test for compounds active against human immunodeficiency virus (HIV), and is designed to detect compounds active at any stage of the virus reproductive cycle. As further related in the NCI bulletin, the assay includes killing of T4 lymphocytes by HIV. Amounts of HIV are added to cells, with a minimum of two cycles of virus reproduction found to be necessary to obtain the required cell killing. Compounds that interact with virions, cells, or virus gene-products to interfere with viral activities will protect cells from cytolysis. All were compared with a positive (e.g., AZT-treated) control evaluation at the same time under identical conditions. The procedure is set forth as follows:
(§2) A candidate compound is first dissolved in a suitable solvent, preferably dimethyl sulfoxide, then diluted 1:100 in cell culture medium before preparing serial half-log10 dilutions. T4 lymphocytes (CEM cell line) are then added and after a brief interval HIV-1 is added, resulting in a 1:200 final dilution of the compound. Uninfected cells with the compound serve as a toxicity control, and infected and uninfected without the compound serve as basic controls. Cultures are then incubated at 37° in a 5% carbon dioxide atmosphere for 6 days. The tetrazolium salt, XTT, is added to all wells, and cultures are incubated to allow formazan color development by viable cells. Individual wells are analyzed spectrophotometrically to quantitate formazan product, and in addition are viewed microscopically for detection of viable cells and confirmation of protective activity. Drug-treated virus-infected cells are compared with drug-treated noninfected cells and with other appropriate controls (untreated infected and untreated noninfected cells, drug-containing wells without cells, etc.) on the same plate. Data are reviewed in comparison with other tests performed at the same time and a determination as to activity is made.

Row | SMILES | activity at 6.32 µM [%]
1 | O=[N+]([O-])c1ccccc1S(=O)(=O)c1cc(Cl)cc2c1NCCC2 [Compound 47, 8-(2-nitrophenylsulfonyl)6chloro-1,2,3,4-tetrahydroquinoline] | 102

Same assay, conditions: Human immunodeficiency virus 1, Lymphocyte, dose 6.33 × 10^-7 Molar; read-out: Percent of Control, Infected

Row | SMILES | activity at 0.633 µM [%]
2 | O=[N+]([O-])c1ccccc1S(=O)(=O)c1cc(Cl)cc2c1NCCC2 [Compound 47, 8-(2-nitrophenylsulfonyl)6chloro-1,2,3,4-tetrahydroquinoline] | 90

Same assay, conditions: Human immunodeficiency virus 1, Lymphocyte, dose 6.34 × 10^-8 Molar; read-out: Percent of Control, Infected

Row | SMILES | activity at 0.0634 µM [%]
3 | O=[N+]([O-])c1ccccc1S(=O)(=O)c1cc(Cl)cc2c1NCCC2 [Compound 47, 8-(2-nitrophenylsulfonyl)6chloro-1,2,3,4-tetrahydroquinoline] | 8.87

Same assay, conditions: Human immunodeficiency virus 1, Lymphocyte, dose 6.35 × 10^-9 Molar; read-out: Percent of Control, Infected

Row | SMILES | activity at 0.00635 µM [%]
4 | O=[N+]([O-])c1ccccc1S(=O)(=O)c1cc(Cl)cc2c1NCCC2 [Compound 47, 8-(2-nitrophenylsulfonyl)6chloro-1,2,3,4-tetrahydroquinoline] | 3

Same assay, conditions: IC50/EC50

Row | SMILES | TI50 (IC/EC), Therapeutic Index
5 | O=[N+]([O-])c1ccccc1S(=O)(=O)c1cc(Cl)cc2c1NCCC2 [Compound 47, 8-(2-nitrophenylsulfonyl)6chloro-1,2,3,4-tetrahydroquinoline] | 6.41 × 10^+1

Each compound was assayed on T4 lymphocytes (CEM cell line) (assay: Cell growth / toxicity control in uninfected T4 lymphocytes (CEM), XTT-formazan). Conditions: Homo sapiens, CCRF-CEM, 144 h, read-out: IC50 (50% inhibitory concentration for cell growth), uninfected CEM cells, 6 days, XTT; approximate values.
Format: cell-based
Excerpt: as §1, §2

Row | SMILES | IC50 [µM]
6 | O=[N+]([O-])c1ccccc1S(=O)(=O)c1cc(Cl)cc2c1NCCC2 [Compound 47, 8-(2-nitrophenylsulfonyl)6chloro-1,2,3,4-tetrahydroquinoline] | > 20

Same assay, conditions: Homo sapiens, CCRF-CEM, dose 2.00 × 10^-5 Molar; read-out: Percent of Control, Uninfected

Row | SMILES | activity at 20 µM [%]
7 | O=[N+]([O-])c1ccccc1S(=O)(=O)c1cc(Cl)cc2c1NCCC2 [Compound 47, 8-(2-nitrophenylsulfonyl)6chloro-1,2,3,4-tetrahydroquinoline] | 96.1

Same assay, conditions: Homo sapiens, CCRF-CEM, dose 2.00 × 10^-6 Molar; read-out: Percent of Control, Uninfected

Row | SMILES | activity at 2 µM [%]
8 | O=[N+]([O-])c1ccccc1S(=O)(=O)c1cc(Cl)cc2c1NCCC2 [Compound 47, 8-(2-nitrophenylsulfonyl)6chloro-1,2,3,4-tetrahydroquinoline] | 92.6

Same assay, conditions: Homo sapiens, CCRF-CEM, dose 2.00 × 10^-7 Molar; read-out: Percent of Control, Uninfected

Row | SMILES | activity at 0.2 µM [%]
9 | O=[N+]([O-])c1ccccc1S(=O)(=O)c1cc(Cl)cc2c1NCCC2 [Compound 47, 8-(2-nitrophenylsulfonyl)6chloro-1,2,3,4-tetrahydroquinoline] | 87.1

Same assay, conditions: Homo sapiens, CCRF-CEM, dose 2.00 × 10^-8 Molar; read-out: Percent of Control, Uninfected

Row | SMILES | activity at 0.02 µM [%]
10 | O=[N+]([O-])c1ccccc1S(=O)(=O)c1cc(Cl)cc2c1NCCC2 [Compound 47, 8-(2-nitrophenylsulfonyl)6chloro-1,2,3,4-tetrahydroquinoline] | 91.2

Same assay, conditions: Homo sapiens, CCRF-CEM, dose 6.32 × 10^-6 Molar; read-out: Percent of Control, Uninfected

Row | SMILES | activity at 6.32 µM [%]
11 | O=[N+]([O-])c1ccccc1S(=O)(=O)c1cc(Cl)cc2c1NCCC2 [Compound 47, 8-(2-nitrophenylsulfonyl)6chloro-1,2,3,4-tetrahydroquinoline] | 104

Same assay, conditions: Homo sapiens, CCRF-CEM, dose 6.33 × 10^-7 Molar; read-out: Percent of Control, Uninfected

Row | SMILES | activity at 0.633 µM [%]
12 | O=[N+]([O-])c1ccccc1S(=O)(=O)c1cc(Cl)cc2c1NCCC2 [Compound 47, 8-(2-nitrophenylsulfonyl)6chloro-1,2,3,4-tetrahydroquinoline] | 86.3

Same assay, conditions: Homo sapiens, CCRF-CEM, dose 6.34 × 10^-8 Molar; read-out: Percent of Control, Uninfected

Row | SMILES | activity at 0.0634 µM [%]
13 | O=[N+]([O-])c1ccccc1S(=O)(=O)c1cc(Cl)cc2c1NCCC2 [Compound 47, 8-(2-nitrophenylsulfonyl)6chloro-1,2,3,4-tetrahydroquinoline] | 92

Same assay, conditions: Homo sapiens, CCRF-CEM, dose 6.35 × 10^-9 Molar; read-out: Percent of Control, Uninfected

Row | SMILES | activity at 0.00635 µM [%]
14 | O=[N+]([O-])c1ccccc1S(=O)(=O)c1cc(Cl)cc2c1NCCC2 [Compound 47, 8-(2-nitrophenylsulfonyl)6chloro-1,2,3,4-tetrahydroquinoline] | 91.2
